# Reference: patent US20080107707A1, “POLYMERIZABLE ANTIMICROBIAL COMPOSITION” (REGENTS OF THE UNIVERSITY OF COLORADO, priority 2006, published 2008)
# Experiments:
# [1] = system: S. epidermidis ATCC 12228; experiment: Minimum bactericidal concentration (MBC), plating of broth dilution tubes; assay type: cell-based, Staphylococcus epidermidis
# Description: The MBC is another parameter used to assess the usefulness of an antibacterial. It provides some measure of the concentration of agent required to kill bacteria, not just inhibit their growth. In this test, 10 μL of media from each tube were plated on trypticase soy agar (TSA) plates with 5% sheep blood (Becton, Dickinson, and Co., Sparks, Md.) and grown for 24 hr. at 37° C. The MBC was taken to be the lowest VPA concentration at which no colonies were observed.
# [2] = system: S. epidermidis ATCC 12228; experiment: Minimum inhibitory concentration (MIC), broth dilution method; assay type: cell-based, Staphylococcus epidermidis
# Description: The minimum inhibitory concentration (MIC) and minimum bactericidal concentration (MBC) of the monomer were determined by the broth dilution method. Various amounts of VPA were added to 1 mL of brain heart infusion media (BHI) (Becton, Dickinson, and Co., Sparks, Md.) along with 1×10^5 cfu of S. epidermidis ATCC 12228 (MicroBiologics, Inc., St. Cloud, Minn.) using aseptic technique. Cultures were incubated for 24 hr. at 37° C. The MIC was taken to be the lowest VPA concentration at which no turbidity was observed.
Molecule,"MBC (lowest concentration at which no colonies were observed) ([1]; 10 μL plated on TSA 5% sheep blood, 24 hr at 37° C, mean ±std. dev.) [µg/mL]",MBC ([1]; S. epidermidis ATCC 12228) [µM],"MIC (lowest concentration at which no turbidity was observed) ([2]; 1×10^5 cfu in 1 mL BHI, 24 hr at 37° C, mean ±std. dev.) [µg/mL]","MIC ([2]; S. epidermidis ATCC 12228, broth dilution) [µM]","MBC ([1]; Staphylococcus epidermidis, ATCC12228) [µM]"
vancomycin-PEG(3400)-acrylate [VPA],15 ± 1,3.0 ± 0.2,11.5 ± 0.8,2.35 ± 0.15,
"CN[C@H](CC(C)C)C(=O)N[C@H]1C(=O)N[C@@H](CC(N)=O)C(=O)N[C@H]2C(=O)N[C@H]3C(=O)N[C@H](C(=O)N[C@H](C(=O)O)c4cc(O)cc(O)c4-c4cc3ccc4O)[C@H](O)c3ccc(c(Cl)c3)Oc3cc2cc(c3O[C@@H]2O[C@H](CO)[C@@H](O)[C@H](O)[C@H]2O[C@H]2C[C@](C)(N)[C@H](O)[C@H](C)O2)Oc2ccc(cc2Cl)[C@H]1O [vancomycin, reference compound]",,,,,1.12 ± 0.04
